Assays:
Format in all cases: cell-based
143B CytB cells [1] = assay: Proliferation assay of respiration-incompetent 143B CytB cybrid cells; details: media supplemented with the substance; no pyruvate unless tested, uridine present
Protocol: FL5.12 cells were cultured in the same medium and supplemented with 5 μg/mL recombinant mouse IL-3 (R&D Systems). […] All cells incubated at 37° C. with 5% CO2.
Adherent cell lines growing in log phase were trypsinized, counted, and plated onto 6 well dishes (Corning) in 2 mL complete DMEM and incubated overnight. […] The following day, one plate of cells was counted to determine the initial cell count at the time of treatment. Cells were washed 2 times with 2 mL phosphate buffered saline (PBS) and 4 mL media premixed with the indicated treatments was added. FL5.12 cells, a suspension cell line, were washed 2 times in PBS and added directly to media containing the indicated treatments and 5 μg/mL recombinant mouse IL-3. Proliferation rate assay media was DMEM without pyruvate containing 10% dialyzed FBS, penicillin-streptomycin, and 0.1 mg/mL uridine, unless otherwise noted. […] Cells were counted using Cellometer Auto T4 Plus Cell Counter (Nexcelom Bioscience). Proliferation rate was determined using the following formula: Proliferation Rate (Doublings per day)=(log2(Final cell count (day 5)/Initial cell count (day 1))/4 (days)

143B CytB cells [2] = assay: Cell cycle distribution by propidium iodide flow cytometry; details: 143B CytB cells, 100 μM adenine, 78 hours
Protocol: 143B CytB cells were incubated in untreated media or media containing AKB or 100 μM adenine for 78 hours before being washed with PBS, trypsinized, pelleted, and resuspended in 500 μL PBS. Cells were fixed by adding 4.5 mL 70% ethanol and incubated at 4° C. overnight. The following day cells were pelleted and resuspended in 1 mL PBS+0.1% (v/v) Triton X-100. RNase A and then propidium iodide (PI) were added to 0.2 mg/mL and 20 μg/mL, respectively. Samples were incubated at 37° C. for 15 minutes and filtered into a flow cytometry tube. DNA content was measured by flow cytometry (BD FACS Canto II) and analyzed (FACS Diva Software).

143B cells [3] = assay: Mitochondrial oxygen consumption (Seahorse XF24), cells treated with respiration inhibitors; details: oligomycin with or without FCCP
Protocol: Oxygen consumption rates were determined on a Seahorse Bioscience Extracellular Flux Analyzer (XF24). Cells were plated in Seahorse Bioscience 24 well plates at 6E4 cells per well in 100 μL complete DMEM, allowed to attach for 1 hour, and 500 μl complete DMEM was added before overnight incubation. The following day cells were washed 2 times in assay media: DMEM without phenol red or pyruvate containing 0.5% dialyzed FBS and 0.1 mg/mL uridine at pH 7.4 and incubated in 500 μL of the same media for the assay.

143B cells [4] = assay: Proliferation assay of wild-type 143B cells treated with respiration inhibitors; details: oligomycin with or without FCCP
Protocol: 143B, A172, H1299, HeLa, U87 and MEF cells were cultured in Dulbecco's Modified Eagle's Medium (DMEM) (Gibco) supplemented with 10% fetal bovine serum (FBS) and penicillin-streptomycin. FL5.12 cells were cultured in the same medium and supplemented with 5 μg/mL recombinant mouse IL-3 (R&D Systems). 143B cybrid cell lines (WT Cybrid and CytB) were cultured in DMEM with 10% FBS, penicillin-streptomycin, and 0.1 mg/mL uridine. All cells incubated at 37° C. with 5% CO2.
Adherent cell lines growing in log phase were trypsinized, counted, and plated onto 6 well dishes (Corning) in 2 mL complete DMEM and incubated overnight. Initial seeding density was 2E4 cells per well for 143B, A172, H1299, HeLa, 143B WT Cybrid, and MEFs and 3E4 cells for 143B CytB and U87 cells. The following day, one plate of cells was counted to determine the initial cell count at the time of treatment. Cells were washed 2 times with 2 mL phosphate buffered saline (PBS) and 4 mL media premixed with the indicated treatments was added. FL5.12 cells, a suspension cell line, were washed 2 times in PBS and added directly to media containing the indicated treatments and 5 μg/mL recombinant mouse IL-3. Proliferation rate assay media was DMEM without pyruvate containing 10% dialyzed FBS, penicillin-streptomycin, and 0.1 mg/mL uridine, unless otherwise noted. For these cell lines at these seeding densities it was determined that for 4 days the cells maintained logarithmic proliferation (data not shown), therefore final cell counts were measured 4 days after treatment. Cells were counted using Cellometer Auto T4 Plus Cell Counter (Nexcelom Bioscience). Proliferation rate was determined using the following formula: Proliferation Rate (Doublings per day)=(log2(Final cell count (day 5)/Initial cell count (day 1))/4 (days)

143B cells [5] = assay: Measurement of NAD+/NADH (NAD/NADH Glo) in 143B cells with respiration inhibitors; details: oligomycin with or without FCCP
Protocol: NAD^+/NADH measurements were done using a modified version of manufacturer instructions of NAD/NADH Glo Assay (Promega). Cells were plated and treated as for proliferation assays and cell extracts were taken 6 hours after treatment. For extraction, cells were quickly washed 3 times in ice cold PBS, extracted in 100 μL ice cold lysis buffer (1% Dodecyltrimethylammonium bromide (DTAB) in 0.2 N NaOH diluted 1:1 with PBS), and immediately frozen at −80° C. To measure NADH, 20 μL of sample was moved to PCR tubes and incubated at 75° C. for 30 min, where the basic conditions will selectively degrade NAD^+. To measure NAD^+, 20 μL of the samples was moved to PCR tubes containing 20 μL lysis buffer and 20 μL 0.4 N HCl and incubated at 60° C. for 15 min, where acidic conditions will degrade NADH. Following incubations, samples were allowed to equilibrate to room temperature and then quenched by neutralizing with 20 μL 0.25 M Tris in 0.2 N HCl (NADH) or 20 μL 0.5 M Tris base (NAD^+). Manufacturer instructions were followed thereafter to measure NAD^+/NADH.

Structure (SMILES)	Proliferation rate of 143B CytB cells (143B CytB cells [1])	Cell cycle distribution (DNA content) (143B CytB cells [2])	Oxygen consumption of oligomycin treated cells (143B cells [3])	Proliferation rate of oligomycin treated 143B cells (143B cells [4])	NAD+/NADH ratio of oligomycin treated 143B cells (143B cells [5])
Nc1ncnc2nc[nH]c12 [adenine, reference compound]	restored proliferation for one doubling	alleviated the slight accumulation of cells at the S/G2 transition	–	–	–
N#CC(C#N)=NNc1ccc(OC(F)(F)F)cc1 [FCCP, carbonyl cyanide-4-(trifluoromethoxy)phenylhydrazone, reference compound]	–	–	increased	increased proliferation of oligomycin treated cells	increased

Reference: patent US10123985B2, “Therapeutic strategies for treating mitochondrial disorders” (Whitehead Institute for Biomedical Research, priority 2015, dated 2018)
